Assay results: PubChem BioAssay (NCI)
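Exposure lasted 48 hours, with cells grown in 96-well plates and compounds tested at five concentrations. Here, GI50 denotes the concentration required for 50% inhibition of growth. TGI marks complete inhibition of growth.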

What was measured:
Assay in all cases: NCI anticancer screen, dose series, 48 h
A549 NSCLC = test system: A549 NSCLC
HOP-92 NSCLC = test system: HOP-92 NSCLC
SNB-75 CNS = test system: SNB-75 CNS
OVCAR-5 ovarian = test system: OVCAR-5 ovarian
HCT-15 colon = test system: HCT-15 colon
SW-620 colon = test system: SW-620 colon
SF-295 CNS = test system: SF-295 CNS
M14 melanoma = test system: M14 melanoma
RXF 393 renal = test system: RXF 393 renal
MDA-MB-435 = test system: MDA-MB-435

Structure (SMILES) | TGI (A549 NSCLC) [µM] | TGI (HOP-92 NSCLC) [µM] | TGI (SNB-75 CNS) [µM] | TGI (OVCAR-5 ovarian) [µM] | TGI (HCT-15 colon) [µM] | TGI (SW-620 colon) [µM] | TGI (SF-295 CNS) [µM] | TGI (M14 melanoma) [µM] | TGI (RXF 393 renal) [µM] | GI50 (HOP-92 NSCLC) [µM] | GI50 (SNB-75 CNS) [µM] | GI50 (OVCAR-5 ovarian) [µM] | GI50 (HCT-15 colon) [µM] | GI50 (SF-295 CNS) [µM] | GI50 (RXF 393 renal) [µM] | GI50 (A549 NSCLC) [µM] | GI50 (MDA-MB-435) [µM] | TGI (MDA-MB-435) [µM] | GI50 (SW-620 colon) [µM] | GI50 (M14 melanoma) [µM]
Cn1cnc([N+](=O)[O-])c1Sc1nc2ccc([N+](=O)[O-])cc2[nH]1 | > 100 | 39.8 | 81.8 | > 100 | 38.8 | > 100 | > 100 | > 100 | 40.1 |  |  |  |  |  |  |  |  |  |  | 
NC(=O)c1ncn(Cc2ccccc2)c1CNC(N)=S | > 100 |  | > 100 | > 100 | > 100 | > 100 | > 100 | > 100 | > 100 |  |  |  |  |  |  |  |  |  |  | 
O=C(CSc1ncc(-c2ccccc2)n1-c1ccccc1)Nc1ccc(-c2nc3ccccc3s2)cc1 |  | 83.1 | 29.6 | > 100 | > 100 |  | > 100 |  | 47.4 | 22.6 | 11.1 | > 100 | > 100 | 3.53 | 11.2 |  |  |  |  | 
COc1cc(NC(C)CCCN2C(=O)c3ccccc3C2=O)c2ncccc2c1OC (centres undefined) | > 100 | > 100 | > 100 | > 100 | > 100 | > 100 | 86.5 | > 100 |  | 18.2 | 54.4 | 82.6 | 28.4 | 21.1 |  | 33 | 34.2 | > 100 | 35.3 | 30.5
c1ccc2c(c1)N=C(c1ccc3ccccc3c1)CC(c1cccc3ccccc13)S2 (centres undefined) | > 100 |  | > 100 | > 100 | > 100 | > 100 | > 100 | > 100 | > 100 |  |  |  |  |  |  |  |  |  |  | 
CC1(C)CC(N2CCN(C3CC(C)(C)NC(C)(C)C3)CC2)CC(C)(C)N1 | > 100 | > 100 | > 100 | > 100 | > 100 | > 100 | > 100 | > 100 | > 100 |  |  |  |  |  |  |  |  |  |  | 
Cc1[nH]n(-c2cccc(Cl)c2)c(=O)c1/C=C1\C=c2ccccc2=CC1=O | > 100 |  | 32.7 | > 100 | > 100 | > 100 | > 100 | > 100 |  |  | 0.927 | > 100 | > 100 | 23.2 |  | > 100 | > 100 | > 100 | > 100 | > 100
N#Cc1cn(-c2c3ccccc3nc3ccccc23)c(=O)[nH]c1=O | 24 | 23.1 | 33.3 | 32.9 | 31.9 | 38 | 23.8 | 28.5 |  |  |  |  |  |  |  |  |  |  |  | 
O=C(NC1C(=O)NNC1c1ccccc1Cl)c1ccccc1 (centres undefined) | > 100 | > 100 | > 100 | > 100 | > 100 | > 100 | > 100 | > 100 | > 100 |  |  |  |  |  |  |  |  |  |  | 
N#CC1C(=O)NC(=O)C1=O (centres undefined) |  | > 100 | > 100 | > 100 | > 100 | > 100 | > 100 | > 100 | > 100 |  |  |  |  |  |  |  |  |  |  | 
NC(=O)c1cc([N+](=O)[O-])cc([N+](=O)[O-])c1 | > 100 | > 100 | > 100 | > 100 | > 100 | > 100 | > 100 | > 100 | > 100 |  |  |  |  |  |  |  |  |  |  | 
COC(=O)/C(=N/NC(C)(C)C)C(C(=O)OC)C(=O)C(=O)Nc1nc2ccc([N+](=O)[O-])cc2s1 (centres undefined) | > 100 |  |  | > 100 | > 100 | > 100 | > 100 | > 100 |  |  |  |  |  |  |  |  |  |  |  | 
COC(=O)C1(C)CCCC2(C)c3cc(OC)ccc3C(=O)C(Br)C12 (centres undefined) | > 10 | > 10 |  | > 10 | > 10 | 4.39 | > 10 | > 10 | > 10 |  |  |  |  |  |  |  |  | > 10 |  | 
O=C1c2ccccc2C(=O)c2c1ccc1c2N=C(c2ccc(Br)cc2)CC(c2cccc3ccccc23)N1 (centres undefined) | > 100 |  | > 100 | > 100 | > 100 | > 100 | > 100 | > 100 | > 100 |  |  |  |  |  |  |  |  |  |  | 
CC1CC(c2ccc(Cl)c(Cl)c2)=Nc2ccccc2S1 (centres undefined) | > 100 | > 100 | > 100 | > 100 | > 100 | > 100 | > 100 | > 100 | > 100 |  |  |  |  |  |  |  |  |  |  | 
CC1(C)OC(=O)C(=Cc2ccc([N+](=O)[O-])s2)C(=O)O1 | > 100 | 37.9 |  | 31.2 | 14.2 | 4.1 | 30.4 | 26.5 |  |  |  |  |  |  |  |  |  | 30.4 |  | 
CCCCCCSc1nc(COC(=O)NC)c(COC(=O)NC)n1C | > 100 |  | > 100 | > 100 | > 100 | > 100 | > 100 | > 100 |  |  |  |  |  |  |  |  |  | > 100 |  | 
COC(=O)C1=C(\O)C[C@@]2(C)CC[C@@H](C(=O)OC)C2C/C=C\1C(=O)OC (some centres undefined) | > 100 | > 100 | > 100 | > 100 | > 100 | > 100 | > 100 | > 100 | > 100 |  |  |  |  |  |  |  |  |  |  | 
O=C(O)c1cn(C2CC2)c2cc(N3CCN(Cc4ccc5ccccc5c4O)CC3)c(F)cc2c1=O | > 100 | 5.44 | 6.73 |  | > 100 |  | > 100 | > 100 | 5.64 | 2.15 | 1.87 |  | 3.22 | 4.29 | 2.29 | 3.29 | 3.12 | > 100 |  | 3.18
Nc1nc2ncn(CC(O)COC(=O)c3ccccc3)c2c(=O)[nH]1 (centres undefined) | > 100 | > 100 | > 100 | > 100 | > 100 | > 100 | > 100 | > 100 | > 100 |  |  |  |  |  |  |  |  |  |  | 
Cc1c(O)c(Br)c(C)c(O)c1Br (tested in a mixture with another compound) | 60 | 3.03 | 29.3 | 34.9 |  | 6.83 | 37.1 | 3.1 | 3.33 |  |  |  |  |  |  |  |  | 3.44 |  | 
CN1CCc2cc3c4cc2C1Cc1ccc(cc1)Oc1cc(ccc1O)CC1c2c(cc(O)c(c2O4)O3)CCN1C (centres undefined) | 6.11 | 8.13 | 65.6 | 14.8 | 4.27 | 7.46 | 3.11 | 3.26 | 13.2 |  |  |  |  |  |  |  |  |  |  | 
